The text below walks through data of ChEMBL document CHEMBL5726394, “Therapeutic compounds and compositions” (2019).

The assay concerns the target Isocitrate dehydrogenase [NADP], mitochondrial (Homo sapiens, UniProt P48735, R140Q). Nature of the assay: IDH2 Enzymatic Assay: Compounds were assayed for IDH2 R140Q inhibitory activity through a cofactor depletion assay. […] The reaction was terminated by the addition of a second enzyme, diaphorase, and a corresponding substrate, resazurin. Diaphorase reduces resazurin to the highly fluorescent resorufin with the concomitant oxidation of NADPH to NADP, both halting the IDH2 reaction by depleting the available cofactor pool and facilitating quantitation of the amount of cofactor remaining after a specific time period through quantitative production of an easily detected fluorophore.Specifically, into each of 12 wells of a 384-well plate, 1 μl of compound dilution series was placed, followed by the addition of 40 μl of buffer (50 mM potassium phosphate, pH 7.5; 150 mM NaCl; 10 mM MgCl2, 10% glycerol, 0.05% bovine serum albumin, 2 mM beta-mercaptoethanol) containing 1.25 μg/ml IDH2 R140Q. The compound was then incubated for one hour at room temperature with the enzyme; before starting the IDH2 reaction with the addition of 10 μl of substrate mix containing 50 μM NADPH and 6.3 mM α-KG in the buffer described above. After a further one hour of incubation at room temperature, the reaction was halted and the remaining NADPH measured through conversion of resazurin to resorufin by the addition of 25 μl Stop Mix (36 μg/ml diaphorase enzyme and 60 μM resazurin; in buffer). […]. In general terms: The colour change of resazurin is a common sign of viable cells or microbes.

Isocitrate dehydrogenase [NADP], mitochondrial, sequence (P48735 40-452 R140Q limits assumed): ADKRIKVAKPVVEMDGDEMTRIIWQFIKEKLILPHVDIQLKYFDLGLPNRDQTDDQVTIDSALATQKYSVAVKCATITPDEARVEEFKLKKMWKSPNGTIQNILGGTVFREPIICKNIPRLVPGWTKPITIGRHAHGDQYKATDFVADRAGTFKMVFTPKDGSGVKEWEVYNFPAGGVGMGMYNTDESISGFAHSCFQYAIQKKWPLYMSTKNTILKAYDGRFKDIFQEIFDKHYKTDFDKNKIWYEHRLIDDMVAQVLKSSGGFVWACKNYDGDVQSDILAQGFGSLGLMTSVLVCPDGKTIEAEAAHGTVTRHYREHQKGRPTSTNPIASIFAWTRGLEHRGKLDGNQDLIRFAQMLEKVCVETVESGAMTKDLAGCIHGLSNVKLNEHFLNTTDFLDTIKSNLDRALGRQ

A word on the IC50: it is the concentration that inhibits the measured activity by half. `CCSc1ccc(S(=O)(=O)NCC(F)(F)F)cc1NC(=O)Nc1cccc(C(F)(F)F)c1` registered an IC50 of less than 100 nM.

The molecule `O=C(Nc1cccc(C(F)(F)F)c1)Nc1cc(S(=O)(=O)Nc2ccccc2)ccc1-c1cccs1` came in with an IC50 of 100 to 1000 nM.
